Like-named read-outs stand apart in the source and are kept apart here. Each block holds one compound with its values, some of them ahead of it.
Legend:
hemostatic system [1] = experiment: TEG MA with combination of adrenergic receptor agonist and antagonists; assay type: in vivo, human
Description: FIG. 10: Seven healthy volunteers received 3 doses of adrenaline infusion lasting for 5 minutes each in the following step-wise increasing doses 3.5, 5.0 and 6.0 μg/kg/h. After resting 1 hour, the subjects received 0.15 μg/kg Seloken i.v. and rested again 30 minutes before repeating the step-wise adrenaline infusions. Blood samples were obtained from an arterial catheter at baseline (t=0.0), after each of the first adrenaline doses (t=5.0, t=10.1, t=15.0), at baseline after Seloken administration and rest (t=0.1) and after each of the subsequent adrenaline infusions (t=5.1, t=10.1, t=15.1). The blood was analyzed with TEG as described in FIG. 3 and Example 1. TEG MA values are presented as mean with 95% Cl and analyzed with a 2-way repeated measurements (RM) ANOVA with post hoc Bonferroni adjusted paired t-test of t=0.0 vs. t=5.0, t=10.1, t=15.0, respectively and t=0.1 vs. t=5.1, t=10.1, t=15.1, ***p<0.001.
Healthy volunteers rested 1 hour before receiving step-wise i.v. administration of adrenaline in the doses 3.5, 5.0 and 6.0 μg/kg/h, five minutes infusion at each dose, as described in FIG. 4. Hereafter the subjects rested for 1 hour and received an antagonist by i.v. infusion propanolol (primarily a β-2 antagonist, 0.15 mg/kg for 10 minutes), n=8, Urapidil (α-1 antagonist, 50 mg) or Seloken (β-1 antagonist 0.15 mg/kg for 10 minutes), n=7. […]

[2] = Hemodynamic monitoring during adrenaline infusion without or with Seloken; assay type: in vivo, human
From the text: FIG. 11: The healthy subjects described in FIG. 10 were monitored haemodynamically at the same time points as described in FIG. 10. (a) heart rate (HR), (b) cardiac output (CO), (c) stroke volume (SV), (d) invasive blood pressure: mean arterial pressure, MAP) and (d) total peripheral resistance (TPR). […] The conc x treatment is an analysis of the total response/the total pattern, to check whether there is an interaction between concentration and treatment. […] ANOVA: Analysis of variance.
The hemodynamic changes comprising heart rate (HR), cardiac output (CO), stroke volume (SV), mean arterial pressure (MAP) and total peripheral resistance (TPR) were monitored during the protocol described in example 7 and FIG. 10.

[3] = Plasma potassium concentration before and after adrenaline and Seloken; assay type: in vivo, human
From the text: Plasma K+ concentrations where followed before and after administration of both adrenaline and Seloken (beta blocker).

hemostatic system [4] = experiment: Thrombelastography (TEG) of arterial whole blood after i.v. infusion in healthy volunteers; assay type: in vivo, human
Description: FIG. 3: Representative TEG profile of healthy volunteers before and after administration of adrenaline. Whole blood was drawn in 1/10 citrate from an arterial catheter. The citrated whole blood sample rested exactly 30 minutes at room temperature before TEG analysis on the Thrombelastograph Hemostasis Analyser, series 5000 (Haemoscope Corp., Skokie, Ill.): One ml of citrated whole blood was transferred to a kaolin vial (Haemoscope Corp.) and gently mixed by inversion 5 times. From the kaolin vial 340 μl was added to a plain TEG cup preloaded with 20 μl of 0.2 M CaCl2 and the analysis started immediately.
FIG. 4: TEG parameters (a) R, (b) Angle and (c) MA of 30 healthy volunteers after totally 15 minutes of i.v. administration of adrenaline. The subjects were catheterized and rested 60 minutes before administration of adrenaline was commenced. Adrenaline was step-wise infused intravenously for 5 minutes at each of the doses 3.5 μg/kg/h, 5.0 μg/kg/h and 6.0 μg/kg/h. Blood samples were collected from an arterial catheter at baseline (t=0) and immediately after each dose (t=5, t=10 and t=15).
FIG. 5: TEG MA measured before and after i.v. infusion of noradrenaline at 4.8 μg/kg/h for 15 minutes in 10 healthy volunteers, mean with 95% Cl. MA before and after noradrenaline was compared by a paired t-test with a p-value<0.05 considered statistically significant.
FIG. 6: TEG MA measured before (t=0) and after i.v. infusion of adrenaline at 4.8 μg/kg/h for 15 minutes (t=15) and 30 minutes after discontinuation of adrenaline administration (t=45). Data presented as mean with 95% Cl.
A whole blood sample for TEG analysis was drawn into a tube containing citrate (9 volumes of blood into 1 volume of 0.129 M citrate; […] system, BD Biosciences, Plymouth, UK) and rested for exactly 30 minutes before analysis: Coagulation was initiated by kaolin and re-calcified according to the instructions of the manufacturer: Citrated whole blood was added to a kaolin vial and mixed by gently inversion 5 times before transfer to the TEG cup containing calcium chloride (20 μl of 0.2 M CaCl2), which was preloaded into the TEG® cup as published previously [Johansson et al. 2008]. The hemostatic process was recorded by use of a TEG® coagulation analyzer (5000 series, Haemoscope Corporation). Adrenaline was mixed with 0.9% NaCl and infused intravenously.
FIG. 3 illustrates TEG profiles from a representative volunteer before and after receiving intravenous infusion of adrenaline 3 μg/kg/h for 15 minutes.

hemostatic system [5] = system: hemostatic system
Description: FIG. 7: TEG parameters (a) R, (b) Angle and (c) MA measured as described in FIG. 3 and example 1 on blood samples collected from patients infused with adrenaline prior to prostatectomy. Ten patients were anesthetized by propofol and haldid and infused with adrenaline i.v. in the doses 1, 2 and 3 μg/kg/h each for 5 minutes prior to skin incision. Hereafter the patients were prostatectomised according to local protocol. Blood samples were collected from an arterial catheter before adrenaline administration and immediately after each infusion dose (1, 2 and 3 μg/kg/h) and again 1 hour after discontinuation of adrenaline infusion. Statistics used: One-way ANOVA, Friedman Test, and Dunn's Multiple Comparison post hoc test of “before” compared to each of the following points 1, 2, 3 μg/kg/h and 1 hour after termination of adrenaline infusion, *p<0.05, **p<0.01,***p<0.001, ns: non significant.
Patients undergoing prostatectomy were anaesthetized by propofol and haldid. Prior to skin incision the patients received a step-wise i.v. infusion of adrenaline in the doses 1, 2 and 3 μg/kg/h each for 5 minutes. TEG analyses were performed as described in example 1, exactly 30 minutes after collection of arterial blood. Blood samples were obtained before and after each dose and 1 hour after discontinuation of adrenaline infusion.

[6] = i.v. step-wise 1, 2, 3 μg/kg/h or 3 μg/kg/h for 15 minutes before skin incision, vs 40 control patients
Description: The 2 intervention groups were compared to 40 controls also undergoing prostatectomy, whereof 20 underwent surgery prior to the interventions and the last 20 after the intervention. All values including median for each group is depicted. Comparisons between control group and each of the intervention groups was done separately by Mann Whitney test.
Blood loss of the 10 patients described in example 2 and 10 additional prostatectomy patients receiving a 15 minutes continuous adrenaline infusion of 3 μg/kg/h before skin incision were compared to 40 control patients, not receiving adrenaline, whereof 20 were operated before the interventions and the last 20 subsequently after the intervention (FIG. 8).

[7] = healthy volunteers, i.v. adrenaline 3 μg/kg/h for 15 minutes (FIG. 3, FIG. 4)
[8] = prostatectomy patients, step-wise i.v. 1, 2 and 3 μg/kg/h each for 5 minutes
[9] = in response to adrenaline infusions

Description for fibrinolysis: Arterial blood was collected in citrate before and after the last adrenaline dose (t=15) and again 30 minutes after end of infusion (t=45). The blood was analyzed with TEG (described in FIG. 3) after addition of tissue plasminogen activator (tPA) in a final concentration of 2.4 nM. (a) A representative example of TEG tracings with tPA induced fibrinolysis before and immediately after infusions of adrenaline. (b) Comparisons of the lysis AUC values t=0 vs. t=15 and t=0 vs. t=45, respectively by 1-way ANOVA, Friedman test and post hoc Dunn's Multiple Comparison Test, **p<0.01, ns: not significant.
When challenging the clot in vitro by induction of fibrinolyis, the Lysis AUC obtained by TEG (see FIG. 2) is a measure of the clot's resistance against fibrinolysis. Healthy subject received step-wise adrenaline infusion as described in FIG. 4, and blood was collected before (t=0), immediately after the infusion (t=15) and 30 minutes after discontinuation (t=45). Citrated whole blood was analysed precisely 30 minutes after blood collection: The fibrinolysis activator tPA (American Diagnostica) was added in a final concentration of 2.4 nM and TEG was performed as described in Example 1 and FIG. 3.

- adrenaline-induced increase in SV ([2]; after Seloken administration): not significantly lowered
- adrenaline-induced decrease in TPR ([2]; after Seloken treatment): significantly lower decrease
- adrenaline-induced increase in CO ([2]; when Seloken was administered, all adrenaline concentrations): significantly lower
- adrenaline-induced increase in HR ([2]; when Seloken was infused before adrenaline): practically abrogated/normalized
- drop in plasma potassium concentration after adrenaline ([3]; Seloken administered prior to adrenaline): less
SMILES: COCCc1ccc(OCC(O)CNC(C)C)cc1 (stereo not shown) [Seloken, Metoprolol]
- effect of antagonist on the MA increase after adrenaline (hemostatic system [1]; antagonist i.v. 30 minutes before repeated step-wise adrenaline 3.5, 5.0, 6.0 μg/kg/h, Seloken 0.15 mg/kg for 10 minutes): not affected

SMILES: NC[C@H](O)c1ccc(O)c(O)c1 [noradrenaline, 4-(2-Amino-1-hydroxyethyl)benzene-1,2-diol]
- pro-hemostatic effect (TEG MA) (hemostatic system [4]; 10 healthy subjects, i.v. 4.8 μg/kg/h for 15 minutes (FIG. 5)): pro-hemostatic effect

- total peripheral resistance (TPR) ([2]; all adrenaline doses, with and without Seloken): significant decrease
- mean arterial pressure (MAP) ([2]; any of the adrenaline doses used): no effects
- cardiac output (CO) [2, 9]: increase in CO
- stroke volume (SV) [2, 9]: increase in SV
- plasma potassium concentrations following administration ([3]; three healthy volunteers): fell
SMILES: CNC[C@H](O)c1ccc(O)c(O)c1 [adrenaline, (R)-4-(1-hydroxy-2-(methylamino)ethyl)benzene-1,2-diol]
- time until MA returns to baseline after discontinuation of infusion (hemostatic system [4]; healthy volunteers, 4.8 μg/kg/h for 15 minutes (FIG. 6)): ≤ 30 min
- MA response (hemostatic system [4]; healthy volunteers, adrenaline infusion 3.5, 5.0, 6.0 μg/kg/h (FIG. 4c)): dose-dependent increase
- TEG Angle (thrombin generation) (hemostatic system [4]; [7]): increased
- TEG MA (mechanical clot strength) (hemostatic system [4]; [7]): increased
- TEG R (initiation of the coagulation process) (hemostatic system [4]; [7]): shorter
- pro-hemostatic effect versus dose (hemostatic system [5]; 1, 2 and 3 microgram/kg/hour, compared to baseline (FIG. 7)): dose dependent increase
- pro-hemostatic effect on clot strength (MA) after discontinuation (hemostatic system [5]; 60 min after discontinuation of infusion, prostatectomy patients): abated
- time until MA returns to baseline after discontinuation of infusion (hemostatic system [5]; prostatectomy patients (FIG. 7c)): ≤ 60 min
- TEG Angle (propagation and thrombin generation) (hemostatic system [5]; [8]): increased
- TEG MA (mechanical strength of the clot) (hemostatic system [5]; [8]): increased
- TEG R (initiation of the coagulation process) (hemostatic system [5]; [8]): decreased
- TEG MA after adrenaline administration (hemostatic system [1]; healthy volunteers, step-wise 3.5, 5.0 and 6.0 μg/kg/h (FIG. 10)): increases
- heart rate (HR) ([2]; adrenaline alone, 3.5, 5.0, 6.0 μg/kg/h): increased HR significantly
- perioperative blood loss [6]: reduced perioperative blood loss significantly
- effect on Lysis AUC after discontinuation (fibrinolysis; 30 minutes after discontinuation of infusion (t=45)): abrogated
- increase of Lysis AUC (resistance against fibrinolysis) (fibrinolysis; healthy subjects, step-wise 3.5, 5.0, 6.0 μg/kg/h, t=15 vs t=0, tPA 2.4 nM): 154%

From patent US9381166B2 (Rigshospitalet, priority 2007, dated 2016)
